For 97 compounds, cytotoxicity results are on record in ChEMBL document CHEMBL3507680, “University of Dundee, Gates Library screen for HepG2 cell viability”.

This series can be described thus: Human HepG2 cell viability assay in 384 well format. It is filed as toxicity, cell-based. More on the design: dose 125 nL, time 70.5 hour; concentration not given beside the values. To be noted: HepG2 cells, read-out: Inhibition.
For the compound `O=C([C@H]1CN(Cc2ccncc2)C[C@H]2OCC[C@@H]12)N1CCCCO1`, the cytotoxicity at 70.5 h is -14.4%.

`Oc1nc(N2CCOCC2)nc2c1CCN(Cc1ccc(F)cc1)CC2`: the cytotoxicity at 70.5 h is -2.02%.

As to `COc1ncccc1CNc1snc(Cl)c1C#N`, the cytotoxicity at 70.5 h was -103%.

Take `CN(Cc1ccncc1)C(=O)NCc1cn(-c2ccccc2)nn1`: the cytotoxicity at 70.5 h is -8.45%.

`CC(=O)N1CCCN(C(=O)NCc2ccc(Cl)s2)CC1`: the cytotoxicity at 70.5 h was -3.07%.

Take `O=C(NC(C1CC1)C1CC1)c1cccc[n+]1[O-]`: the cytotoxicity at 70.5 h was -2.48%.

Consider `c1ncn(CC2CN(Cc3ccc4c(c3)OCCO4)CCO2)n1` (configuration not stated), for which the cytotoxicity at 70.5 h was -0.441%.

For `CC(C)(C)C(=O)NCCC(=O)Nc1cc(C#N)cn1C(C)(C)C`, the cytotoxicity at 70.5 h was -4.11%.

On to `Cc1noc(C(C)N2CCc3[nH]c4ccc(Cl)cc4c3C2)n1` (configuration not stated), for which the cytotoxicity at 70.5 h was -8.97%.

Take `CC(=O)c1cc2ncc(C(=O)NC3CC3)cc2[nH]1`: the cytotoxicity at 70.5 h is 16%.

For the compound `CCCNC(=O)CCC(=O)N1CCC(c2n[nH]c(C3CC3)n2)CC1`, the cytotoxicity at 70.5 h worked out at 21.7%.

In the case of `COCc1cc(N(C)Cc2ncnn2C)nc(C(C)(C)C)n1`, the cytotoxicity at 70.5 h is -10.6%.

With `Cn1cc(CN2CC[C@H](O)[C@@H](n3ccc(=O)[nH]c3=O)CC2)cn1`, the cytotoxicity at 70.5 h turned out to be 12.4%.

Take `C1CCN(CCO[C@@H]2CC[C@H]3[C@H]2OCCN3CC2CCOCC2)C1`: the cytotoxicity at 70.5 h was -120%.

Regarding `CC(C)(C)CN1CC(O)CN(C(=O)c2cccc(C(F)(F)F)c2)CC1=O` (configuration not stated), the cytotoxicity at 70.5 h is -7.28%.

Turning to `Cc1cnn(CC2CCCCN2C(=O)c2ccc(NC3CC3)nc2)c1` (configuration not stated), the cytotoxicity at 70.5 h is -4.98%.

For `Cc1cccc(CN2CCc3c(nc(N4CCCCC4C)[nH]c3=O)C2)n1` (configuration not stated), the cytotoxicity at 70.5 h is -4.07%.

As to `CCNC(=O)N1CC[C@H]2CC(=O)N(CC(N)=O)CC[C@H]2C1`, the cytotoxicity at 70.5 h is -1.17%.

As for `CN(C)C[C@@H]1CN(C(=O)Cc2ccc3ccccc3c2)C[C@@H]1CO`, the cytotoxicity at 70.5 h was -8.64%.

On to `CCCN1CCN(Cc2nc3ccccc3[nH]2)[C@H]2CS(=O)(=O)C[C@H]21`, for which the cytotoxicity at 70.5 h was -3.06%.

Turning to `Cc1noc(CCCC(=O)NC(C)c2ccc(Cl)s2)n1` (configuration not stated), the cytotoxicity at 70.5 h was -7.88%.

As for `O=C(c1cnccn1)N1CCC2(CC1)C(=O)NCC2c1ccccc1` (configuration not stated), the cytotoxicity at 70.5 h is -6.72%.

Regarding `CN(C)C(=O)c1cc(S(=O)(=O)N2CCCC2Cn2ccnc2)cn1C` (configuration not stated), the cytotoxicity at 70.5 h came to 2.99%.

`Cc1cc(CN(C)C(=O)c2ccc(C(F)(F)F)nc2)no1`: the cytotoxicity at 70.5 h is -19.6%.

Consider `CC(C)=CCN1CC2(CCN(Cc3ncc[nH]3)CC2)CC1=O`, for which the cytotoxicity at 70.5 h stood at 11.6%.

On to `O=C(NC1CC1)[C@H]1C[C@H]2OCC[C@H]2N(Cc2ccc(F)cc2)C1`, for which the cytotoxicity at 70.5 h is -6.46%.

Consider `CC(C)(C)c1nc(CN2CCC(c3nc4cc(Cl)ccc4o3)CC2)no1`, for which the cytotoxicity at 70.5 h came to 15.4%.

For `CCC(CNC(=O)c1ccc(C(N)=O)cc1)Oc1cccc(F)c1` (configuration not stated), the cytotoxicity at 70.5 h is -1.85%.

Regarding `Cn1cc(CN2CC[C@@H]3[C@@H]2CCN3Cc2ccc3c(c2)OCO3)cn1`, the cytotoxicity at 70.5 h was -3%.

`COCCN1CCN(S(=O)(=O)C2CC2)Cc2cccnc21`: the cytotoxicity at 70.5 h is -5.48%.

With `COC(=O)C1CCN(C(=O)c2nnc3ccc(Cl)cc3n2)CC1`, the cytotoxicity at 70.5 h was -7.04%.

With `C=C/C=c1\c(=C/C)oc2c(NCc3ccccc3)nc(C)nc12`, the cytotoxicity at 70.5 h came out at 13.2%.

Consider `CCc1cnc(N)nc1N(C)CCc1cnn(C)c1`, for which the cytotoxicity at 70.5 h is 45.7%.

For `Cc1nc(N2CCC(C)CC2)ncc1-c1cc(O)nc(N2CCCC2)n1`, the cytotoxicity at 70.5 h came to 1.46%.

On to `COc1ccc(C[C@H]2CN(C(=O)c3cc(C)no3)CC[C@H]2OC)cc1`, for which the cytotoxicity at 70.5 h is -5.12%.

For the compound `COc1cc(NC2CCCN(c3ncccc3C#N)C2)cc(OC)c1` (configuration not stated), the cytotoxicity at 70.5 h amounted to 23%.

In the case of `CCN(CC)C1CCN(C(=O)NCc2nncn2CC)CC1`, the cytotoxicity at 70.5 h is -0.0969%.

As for `Cc1cnn(C2CCCN(C(=O)c3c(C)oc(C)c3C)C2)c1` (configuration not stated), the cytotoxicity at 70.5 h is -0.501%.

In the case of `Cn1cc(C[C@H]2[C@H](O)CCN2CC2CC2)cn1`, the cytotoxicity at 70.5 h stood at 6.74%.

For `O=C(N1CCCC1)N1CCC[C@]2(C[C@@H](Oc3ncccc3F)CO2)C1`, the cytotoxicity at 70.5 h is -4.8%.

In the case of `O=C(c1ccnc(C2CCNCC2)c1)N1CCCOCC1`, the cytotoxicity at 70.5 h is -1.42%.

Take `Cc1nc(C2CCCN(C(=O)c3cccc(S(C)(=O)=O)c3)C2)no1` (configuration not stated): the cytotoxicity at 70.5 h is -9.98%.

Take `CCc1ncnc2c1CCN(Cc1ccc3c(c1)OCO3)CC2`: the cytotoxicity at 70.5 h stood at 4.52%.

Turning to `C1CC(N2Cc3nnn(CC4CC4)c3C(COCC3CC3)C2)C1` (configuration not stated), the cytotoxicity at 70.5 h is -3.4%.

On to `c1cnc(N2CCC(OCC3CCCCO3)CC2)nc1` (configuration not stated), for which the cytotoxicity at 70.5 h was -2.08%.

Consider `COC(=O)[C@@H]1Cc2c[nH]c3cccc(c23)[C@H](CC(C)C)N1`, for which the cytotoxicity at 70.5 h was -2.26%.

Consider `Cn1cccc1C(=O)N1CCC2(CCCN(CC3CCC3)C2=O)C1` (configuration not stated), for which the cytotoxicity at 70.5 h was -2.25%.

For `CC(c1ccc(F)cc1)N1CCN(Cc2nccn2C)CC1` (configuration not stated), the cytotoxicity at 70.5 h worked out at 4.48%.

Take `COc1ccccc1OCCCc1cc(C#N)ccn1`: the cytotoxicity at 70.5 h came out at 6.71%.

Regarding `CCC1C(=O)NCCN1c1ccnc(C(C)(C)C)n1` (configuration not stated), the cytotoxicity at 70.5 h is -23.9%.

In the case of `CCN1CCC(NC(=O)CN2CCCCC2Cn2cc(C)cn2)CC1` (configuration not stated), the cytotoxicity at 70.5 h came to 53.1%.

With `CC(C)c1cc(C(=O)NCCc2nc(-c3ccncc3)n[nH]2)[nH]n1`, the cytotoxicity at 70.5 h was -5.69%.

For the compound `COCC1CC2(CCN(C(=O)c3ccccc3C)CC2)CN1C(C)C` (configuration not stated), the cytotoxicity at 70.5 h stood at 19.7%.

`O=C(NCCOc1cccc(Cl)c1)C1CC(=O)N(CC2CC2)C1` (configuration not stated): the cytotoxicity at 70.5 h came to 40.6%.

Take `CCSc1ncc(CN(Cc2cnn(C)c2)CC(C)C)cn1`: the cytotoxicity at 70.5 h is -4.66%.

On to `O=C(Cc1ccc(Cl)cc1)N[C@@H]1CCC[C@@H](O)[C@@H]1O`, for which the cytotoxicity at 70.5 h is -0.327%.

Take `COCCC(=O)N1CCC2(CCN(Cc3ccc(C)cc3)CC2)C1`: the cytotoxicity at 70.5 h was -7.89%.

Turning to `O=C(Nc1ccccc1OCc1ccccn1)NC1CCOCC1`, the cytotoxicity at 70.5 h is -8.37%.

In the case of `Cc1ccc(F)cc1C(=O)N1CCN(S(C)(=O)=O)[C@@H](C)C1`, the cytotoxicity at 70.5 h was -82.4%.

Regarding `CCN(Cc1ccc2c(c1)OCCO2)C(=O)NCc1cc[nH]n1`, the cytotoxicity at 70.5 h is -20.9%.

With `CN(C)C(=O)COc1ccccc1CN1CCOC2(CCCC2)C1`, the cytotoxicity at 70.5 h turned out to be 0.31%.

Take `CCOC(=O)CC(NC(=O)c1cn(Cc2ccccc2F)nn1)C(C)C` (configuration not stated): the cytotoxicity at 70.5 h is -9.35%.

With `COC(=O)[C@H](C)NC(=O)Cc1c(C)nc2c(c1C)c(=O)[nH]n2C`, the cytotoxicity at 70.5 h is -2.82%.

For the compound `CCC(NC(=O)C1CCN(S(C)(=O)=O)CC1)c1ccc(C)c(C)c1` (configuration not stated), the cytotoxicity at 70.5 h was -4.17%.

In the case of `Cc1[nH]ccc1C(=O)N[C@H]1CN(S(C)(=O)=O)C[C@@H]1C1CC1`, the cytotoxicity at 70.5 h is -5.26%.

In the case of `COC(=O)CNC(=O)c1nc(-c2ccccc2OC)c2cnccn12`, the cytotoxicity at 70.5 h is -11.4%.

On to `Cc1nonc1CN(C)CC1(O)CCCN(CCC2CCCCC2)C1=O` (configuration not stated), for which the cytotoxicity at 70.5 h came to 2.77%.

Take `CCc1nnc2n1CCN(Cc1cc(Cl)c3c(c1)OCCCO3)C2`: the cytotoxicity at 70.5 h was found to be 0.524%.

On to `Cc1nn2c(N3CCCC(C#N)C3)cc(-c3ccccc3)nc2c1C` (configuration not stated), for which the cytotoxicity at 70.5 h was determined as 1.82%.

For `Cn1cccc1C(=O)N1CC[C@@H]2[C@@H]1CC(=O)N2CCN1CCOCC1`, the cytotoxicity at 70.5 h was -4.61%.

As to `COCCNC(=O)Cn1cc2c(n1)c(C)nn2C(C)C`, the cytotoxicity at 70.5 h is -5.84%.

For `COc1ccc(-c2cccc(CC3(C(=O)O)CCOCC3)c2)cc1`, the cytotoxicity at 70.5 h was -4.34%.

Consider `O=C1COC2(CCN(Cc3cccnc3)CC2)CN1c1ccccc1`, for which the cytotoxicity at 70.5 h is -8.85%.

For `CCN1CC(CN(C)Cc2nc(-c3ccoc3)oc2C)CC1=O` (configuration not stated), the cytotoxicity at 70.5 h is 0.925%.

As to `CN(Cc1cc(C2CC2)[nH]n1)Cc1cc2ccc(F)cc2[nH]c1=O`, the cytotoxicity at 70.5 h is -12.6%.

`Cc1nnc2n1CCN(Cc1csc(COc3ccccc3)n1)C2`: the cytotoxicity at 70.5 h was -7.26%.

`Cc1ccc(C(=O)N2C[C@@H](OCc3cccnc3)[C@H]3OCCC[C@H]32)o1`: the cytotoxicity at 70.5 h came to 3.45%.

With `CN(CC(=O)NC(Cc1ccsc1)c1cccnc1)Cc1ccccn1` (configuration not stated), the cytotoxicity at 70.5 h came to 31.3%.

As for `Cn1nccc1CCC(=O)N1CCCC(c2cnccn2)C1` (configuration not stated), the cytotoxicity at 70.5 h was determined as 12.9%.

In the case of `O=C(CN1CCN(c2ncnc3c2CCNCC3)CC1)N1CCCCC1`, the cytotoxicity at 70.5 h was -5.29%.

For `CSCC(=O)Nc1cccc(Oc2ccccn2)c1`, the cytotoxicity at 70.5 h stood at 9.83%.

`CNC(=O)N1CC[C@@H]2CN(Cc3cccnc3)S(=O)(=O)[C@@H]2CC1`: the cytotoxicity at 70.5 h was -17.6%.

For `O=C(NCCN1CCOC1=O)c1cnc(-c2cccnc2)nc1`, the cytotoxicity at 70.5 h was -3.86%.

Consider `CN(Cc1ccccc1)C(=O)CCNc1ncccc1C#N`, for which the cytotoxicity at 70.5 h is -4.83%.

For the compound `O=C1COC2(COCCN(Cc3ccsc3)C2)CN1c1ccc(F)cc1` (configuration not stated), the cytotoxicity at 70.5 h is -2.28%.

For `Cc1cc(C(=O)N2CCCN(Cc3nccn3C(C)C)CC2)no1`, the cytotoxicity at 70.5 h was -5.9%.

For the compound `CN1CCOC(CN(C(=O)Cc2ccccc2F)c2nccs2)C1` (configuration not stated), the cytotoxicity at 70.5 h worked out at 20.9%.

Regarding `Cc1ccccc1CCCN1CCS(=O)(=O)CC1C` (configuration not stated), the cytotoxicity at 70.5 h is -6.59%.

With `NC(=O)N1CCC(NCc2cc(C(F)(F)F)ccc2Cl)CC1`, the cytotoxicity at 70.5 h was -5.57%.

For the compound `CCOc1ccc(-c2nc(C(=O)NCC3CCOC3)cs2)cc1` (configuration not stated), the cytotoxicity at 70.5 h was -7.97%.

As for `CNCCc1nc2cc(F)ccc2[nH]1`, the cytotoxicity at 70.5 h is -5.66%.

`Cc1noc(C)c1-c1cncc(C2CCCN2Cc2cc[nH]n2)n1` (configuration not stated): the cytotoxicity at 70.5 h was -3.25%.

Regarding `O=S(=O)(N1CCCC1)N1C[C@@H](c2cccc(F)c2)[C@@H]2NCCCCC[C@H]21`, the cytotoxicity at 70.5 h is -6.83%.

For `CC(C)(C)NC(=O)CN1CCCC(c2ccc(C(=O)O)cc2)C1` (configuration not stated), the cytotoxicity at 70.5 h stood at 0.492%.

Consider `Cc1nc(C)n(CC2CN(Cc3cccnc3)CCO2)n1` (configuration not stated), for which the cytotoxicity at 70.5 h was -3.76%.

On to `Nc1nccnc1C(=O)NCCCNc1ccc(C(F)(F)F)cn1`, for which the cytotoxicity at 70.5 h came to 2.59%.

With `Cc1cc(C)n(CC2CCCN2C(=O)CCc2nccs2)n1` (configuration not stated), the cytotoxicity at 70.5 h is -7.22%.
